Measurements published in ChEMBL document CHEMBL1201862, “PubChem BioAssay data set” (2004).
The source made the active and inactive calls.

Assays:
Genome polyprotein = Genome polyprotein (Hepatitis C virus, UniProt Q2Q167); assay: HCV core protein dimerization inhibitors, dose response, biochemical, TR-FRET (AID 2159); design: species or system Hepacivirus hominis;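 also: blocks dimerization of HCV core protein measured by TR-FRET between tagged core106 pairs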
[1] = target: E3 ubiquitin-protein ligase Mdm2 (Homo sapiens, UniProt Q00987); assay: enhancers of MDM2-luciferase reporter signal, concentration-effect titration, project on inhibitors of MDM2 ubiquitin ligase, cellular assay, luminescent readout, 384-well plate format (AID 1394); assay type: functional;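 also: MDM2 E3 inhibitors raise luminescence so EC50 is for signal enhancement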
[2] = growth suppression of beta-catenin-knockout colon cells, dose response, cell-based, HCT116, human colon tumor (AID 1045); assay type: functional;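 also: HCT116 colon tumor cells with beta catenin knocked out; cells exposed to compound for 60 hours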
[3] = cytotoxicity in HEK-293T cells, dose response, cytotoxicity control for BCR NF-kB inhibitor project, luminescence, B-cell screen hits (AID 489021); assay type: functional, cell-based;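 also: HEK-293T cells carrying an NF-kB luciferase reporter; cells exposed to compound for about 14 hours before viability readout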
[4] = Vero cell cytotoxicity, dose response, cytotoxicity control for Vif-APOBEC3G degradation inhibitor project, Vero cells (AID 1117358); assay type: functional; details: Human immunodeficiency virus 1, Vero
[5] = target: T1, Hepatocyte nuclear factor 4-alpha (Homo sapiens, UniProt P41235); assay type: functional, cell-based;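 also: biochemical luminescence-based dose-response counterscreen measuring inhibition of HNF4 dimerization, run alongside a screen for blockers of ABHD5–perilipin-5 interaction; split luciferase complementation of HNF4 fusion proteins in cell lysate measuring dimerization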
T1 sequence (P41235 whole entry): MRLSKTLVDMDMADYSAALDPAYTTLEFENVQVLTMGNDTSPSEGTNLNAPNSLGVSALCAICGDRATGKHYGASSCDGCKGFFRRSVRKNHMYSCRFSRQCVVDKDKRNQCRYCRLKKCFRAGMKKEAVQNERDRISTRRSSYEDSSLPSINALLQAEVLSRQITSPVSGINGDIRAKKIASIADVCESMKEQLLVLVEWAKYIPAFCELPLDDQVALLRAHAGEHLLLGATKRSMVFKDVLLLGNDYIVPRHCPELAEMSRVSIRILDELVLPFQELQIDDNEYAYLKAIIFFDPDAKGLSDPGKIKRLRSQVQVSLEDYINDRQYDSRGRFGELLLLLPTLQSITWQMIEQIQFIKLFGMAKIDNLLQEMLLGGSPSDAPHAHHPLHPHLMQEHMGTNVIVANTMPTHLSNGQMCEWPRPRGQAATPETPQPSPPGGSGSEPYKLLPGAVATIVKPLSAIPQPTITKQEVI

[6] = growth suppression of PTEN-null colon cells, dose response, cell-based, HCT116 PTEN knockout (AID 1047); assay type: functional;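 also: HCT116 colon tumor cells with PTEN knocked out; cells exposed to compound for 60 hours before readout; potency for loss of cell viability measured by luminescence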
[7] = cytotoxicity in HPDE-C7 cells, cell-based, fluorescence, HTS (AID 430); assay type: functional; details: Homo sapiens
[8] = cytotoxicity in KRAS-transformed pancreatic duct cells, primary screen, cell-based, fluorescence, HTS (AID 431); assay type: functional; details: Homo sapiens;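 also: cell line used: HPDE-C7K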
[9] = Luminescence Cell-Based Dose Confirmation to Identify Activators of 5'UTR Stem-Loop Driven Alpha-Synuclein mRNA Translation in H4 Neuroglioblastoma Cells. [Related pubchem assays: 1829 (Project Summary), 1814 (Primary HTS)]; assay type: functional
[10] = Luminescence Cell-Based Dose Response to Identify Activators of 5'UTR Stem-Loop Driven Prion Protein mRNA Translation in H4-C Neuroglioblastoma Cells. [Related pubchem assays: 1829 (Project Summary), 1814 (Primary HTS)]; assay type: functional
[11] = Luminescence Cell-Based Dose Confirmation HTS to Identify Activators of 5'UTR Stem-Loop Driven Alpha-Synuclein mRNA Translation in H4 Neuroglioblastoma Cells. [Related pubchem assays: 1829 (Project Summary), 1814 (Primary HTS)]; assay type: functional
[12] = Luminescence Cell-Based Dose Response HTS to Identify Activators of Luciferase Translation or Activity in H4 […] Cells. [Related pubchem assays: 1829 (Project Summary), 1814 (Primary HTS)]; assay type: functional
[13] = Luminescence Cell-Based Dose Response to Identify Activators of Luciferase Translation or Activity in H4-C Neuroglioblastoma Cells. [Related pubchem assays: 1829 (Project Summary), 1814 (Primary HTS)]; assay type: functional
H4 = assay: Luminescence Cell-Based Dose Response HTS to Identify Activators of 5'UTR Stem-Loop Driven Prion Protein mRNA Translation in H4 Neuroglioblastoma Cells. [Related pubchem assays: 1829 (Project Summary), 1814 (Primary HTS)]; assay type: functional; details: Homo sapiens
[14] = target: Heat shock protein HSP 90-alpha (Homo sapiens, UniProt P07900); assay: Luminescence-based dose response biochemical high throughput screening assay for inhibitors of the Heat Shock Protein 90 (HSP90). [Related pubchem assays: 1831 (Summary AID.), 1846 (Confirmation screen.), 1789 (Primary screen.)]
Tumor necrosis factor = Tumor necrosis factor (Homo sapiens, UniProt P01375); assay: TNFa-triggered NF-kB activation inhibitors, SAR follow-up, cell-based, revised (AID 2337); assay type: functional
HEK293 [15] = assay: NOD2 signaling inhibitors in MDP-stimulated cells, cell-based, uHTS, luminescence (AID 2001); assay type: functional; details: Homo sapiens
[16] = target: T2, Nucleotide-binding oligomerization domain-containing protein 1 (Homo sapiens, UniProt Q9Y239); assay: NOD1 signaling inhibitors, SAR follow-up, revised (AID 2333); assay type: functional
T2 sequence (Q9Y239 whole entry): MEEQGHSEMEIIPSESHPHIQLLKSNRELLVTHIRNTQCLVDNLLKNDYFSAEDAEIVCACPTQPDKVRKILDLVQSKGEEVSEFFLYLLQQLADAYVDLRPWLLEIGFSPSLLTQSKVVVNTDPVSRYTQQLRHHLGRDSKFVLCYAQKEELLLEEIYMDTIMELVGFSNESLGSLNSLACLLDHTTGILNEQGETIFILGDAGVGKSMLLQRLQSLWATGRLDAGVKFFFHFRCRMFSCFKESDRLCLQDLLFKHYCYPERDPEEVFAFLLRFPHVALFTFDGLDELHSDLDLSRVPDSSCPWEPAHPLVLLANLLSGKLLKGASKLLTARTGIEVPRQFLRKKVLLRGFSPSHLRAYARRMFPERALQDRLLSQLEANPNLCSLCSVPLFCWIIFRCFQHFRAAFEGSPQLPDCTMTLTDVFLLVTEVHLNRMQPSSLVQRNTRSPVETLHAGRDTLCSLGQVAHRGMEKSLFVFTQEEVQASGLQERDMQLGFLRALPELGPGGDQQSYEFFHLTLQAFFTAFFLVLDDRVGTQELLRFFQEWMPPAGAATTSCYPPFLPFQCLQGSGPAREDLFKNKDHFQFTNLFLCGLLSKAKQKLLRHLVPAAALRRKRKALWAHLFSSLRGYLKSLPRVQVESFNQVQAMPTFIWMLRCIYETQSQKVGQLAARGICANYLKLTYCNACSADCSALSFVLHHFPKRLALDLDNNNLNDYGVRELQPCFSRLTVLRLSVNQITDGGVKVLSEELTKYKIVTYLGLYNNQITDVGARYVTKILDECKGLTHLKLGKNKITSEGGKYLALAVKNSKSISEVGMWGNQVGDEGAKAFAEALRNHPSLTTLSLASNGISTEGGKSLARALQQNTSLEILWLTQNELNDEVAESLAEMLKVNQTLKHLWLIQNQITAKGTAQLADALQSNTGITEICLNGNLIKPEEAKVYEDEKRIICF

HEK293 [17] = assay: cells; assay type: functional, cell-based; details: Homo sapiens
ELAV-like protein 1 = ELAV-like protein 1 (Homo sapiens, UniProt Q15717); assay: Identify HuR specific inhibitors.; assay type: functional
HEK293 [18] = assay: cells; assay type: functional, cell-based; details: Homo sapiens; remark: listed apart in the source
HEK293 [19] = assay: cells; details: Homo sapiens
HEK293 [20] = assay: NOD1 signaling inhibitors, primary screen, cell-based, luminescence, uHTS (AID 1578); assay type: functional; details: Homo sapiens
[21] = target: Protein-tyrosine kinase 2-beta (Homo sapiens, UniProt Q14289);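 also: potency of inhibitors of PYK2 kinase phosphorylation of poly-GT substrate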
[22] = target: Voltage-dependent T-type calcium channel subunit alpha-1H (Homo sapiens, UniProt O95180); assay type: functional;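 also: channel activity triggered by adding a high calcium stimulation buffer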
Chain of Voltage-dependent T-type calcium channel subunit alpha-1H (O95180 whole entry): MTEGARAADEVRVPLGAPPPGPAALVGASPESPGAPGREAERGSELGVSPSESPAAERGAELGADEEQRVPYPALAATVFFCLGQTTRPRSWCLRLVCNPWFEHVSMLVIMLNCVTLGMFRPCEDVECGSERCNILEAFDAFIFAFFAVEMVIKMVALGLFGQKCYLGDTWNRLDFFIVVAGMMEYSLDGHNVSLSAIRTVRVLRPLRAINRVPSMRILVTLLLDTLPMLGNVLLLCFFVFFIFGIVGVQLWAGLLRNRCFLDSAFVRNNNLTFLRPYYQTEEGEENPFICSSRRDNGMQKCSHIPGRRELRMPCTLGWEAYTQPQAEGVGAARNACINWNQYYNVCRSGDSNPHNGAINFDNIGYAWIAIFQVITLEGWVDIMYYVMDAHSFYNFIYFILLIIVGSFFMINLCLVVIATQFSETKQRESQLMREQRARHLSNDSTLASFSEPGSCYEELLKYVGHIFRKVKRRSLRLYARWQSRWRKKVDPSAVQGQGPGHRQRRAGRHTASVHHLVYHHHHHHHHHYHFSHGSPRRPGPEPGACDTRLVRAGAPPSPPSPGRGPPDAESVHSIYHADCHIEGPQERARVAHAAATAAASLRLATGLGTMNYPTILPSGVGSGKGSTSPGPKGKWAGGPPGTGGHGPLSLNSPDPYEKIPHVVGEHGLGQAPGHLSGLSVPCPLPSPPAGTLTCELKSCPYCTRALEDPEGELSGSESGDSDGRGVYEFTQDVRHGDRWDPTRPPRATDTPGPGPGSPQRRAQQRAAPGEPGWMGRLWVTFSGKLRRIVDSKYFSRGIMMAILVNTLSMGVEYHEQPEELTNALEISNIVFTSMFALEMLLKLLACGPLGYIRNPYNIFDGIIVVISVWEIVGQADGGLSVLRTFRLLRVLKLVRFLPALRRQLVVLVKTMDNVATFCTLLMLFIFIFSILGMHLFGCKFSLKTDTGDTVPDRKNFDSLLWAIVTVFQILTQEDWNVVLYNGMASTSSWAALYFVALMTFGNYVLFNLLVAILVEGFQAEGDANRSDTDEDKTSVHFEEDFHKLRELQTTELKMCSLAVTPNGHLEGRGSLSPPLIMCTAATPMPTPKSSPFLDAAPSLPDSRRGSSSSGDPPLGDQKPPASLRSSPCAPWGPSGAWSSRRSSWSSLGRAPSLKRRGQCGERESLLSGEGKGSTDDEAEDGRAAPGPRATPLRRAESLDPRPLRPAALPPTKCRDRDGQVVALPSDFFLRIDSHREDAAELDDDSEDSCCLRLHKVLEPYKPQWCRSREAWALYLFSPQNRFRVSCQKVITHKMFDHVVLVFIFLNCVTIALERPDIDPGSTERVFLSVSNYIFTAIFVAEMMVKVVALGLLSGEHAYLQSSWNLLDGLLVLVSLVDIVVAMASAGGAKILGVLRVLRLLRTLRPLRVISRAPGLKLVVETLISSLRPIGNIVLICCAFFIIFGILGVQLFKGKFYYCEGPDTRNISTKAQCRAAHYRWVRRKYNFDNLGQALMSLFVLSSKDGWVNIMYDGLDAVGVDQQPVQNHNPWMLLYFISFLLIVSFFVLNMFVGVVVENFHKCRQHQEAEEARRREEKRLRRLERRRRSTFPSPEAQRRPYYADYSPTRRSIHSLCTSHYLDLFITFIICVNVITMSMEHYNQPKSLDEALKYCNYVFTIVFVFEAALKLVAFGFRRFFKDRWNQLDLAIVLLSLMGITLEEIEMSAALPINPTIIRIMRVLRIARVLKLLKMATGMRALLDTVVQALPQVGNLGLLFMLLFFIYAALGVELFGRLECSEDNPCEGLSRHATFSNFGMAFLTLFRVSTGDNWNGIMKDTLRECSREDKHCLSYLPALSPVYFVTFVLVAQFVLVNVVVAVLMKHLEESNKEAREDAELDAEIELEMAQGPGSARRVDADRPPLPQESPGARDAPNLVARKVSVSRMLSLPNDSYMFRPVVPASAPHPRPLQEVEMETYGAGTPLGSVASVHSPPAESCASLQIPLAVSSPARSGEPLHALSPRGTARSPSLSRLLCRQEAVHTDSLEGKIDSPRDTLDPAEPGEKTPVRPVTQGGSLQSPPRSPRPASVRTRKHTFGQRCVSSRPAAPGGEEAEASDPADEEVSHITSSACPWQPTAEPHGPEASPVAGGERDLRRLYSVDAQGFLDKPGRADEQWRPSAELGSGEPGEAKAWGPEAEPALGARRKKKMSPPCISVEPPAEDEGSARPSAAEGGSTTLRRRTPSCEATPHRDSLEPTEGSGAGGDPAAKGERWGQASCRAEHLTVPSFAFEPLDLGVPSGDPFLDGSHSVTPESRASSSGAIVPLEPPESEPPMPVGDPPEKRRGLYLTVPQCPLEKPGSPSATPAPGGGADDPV

Chain of E3 ubiquitin-protein ligase Mdm2 (Q00987 whole entry): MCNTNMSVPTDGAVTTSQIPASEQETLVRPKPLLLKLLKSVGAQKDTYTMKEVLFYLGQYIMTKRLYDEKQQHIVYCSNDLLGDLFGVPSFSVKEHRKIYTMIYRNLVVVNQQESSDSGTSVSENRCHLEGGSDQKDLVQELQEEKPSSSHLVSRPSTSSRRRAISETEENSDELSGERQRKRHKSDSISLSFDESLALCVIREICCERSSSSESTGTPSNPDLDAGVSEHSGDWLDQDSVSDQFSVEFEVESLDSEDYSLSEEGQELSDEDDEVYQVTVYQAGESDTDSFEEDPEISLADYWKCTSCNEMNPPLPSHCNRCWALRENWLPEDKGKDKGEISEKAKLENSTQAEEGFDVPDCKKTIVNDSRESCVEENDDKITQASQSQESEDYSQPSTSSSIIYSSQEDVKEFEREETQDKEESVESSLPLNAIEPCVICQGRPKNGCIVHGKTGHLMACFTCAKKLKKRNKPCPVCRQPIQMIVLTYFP
Chain of Protein-tyrosine kinase 2-beta (Q14289 whole entry): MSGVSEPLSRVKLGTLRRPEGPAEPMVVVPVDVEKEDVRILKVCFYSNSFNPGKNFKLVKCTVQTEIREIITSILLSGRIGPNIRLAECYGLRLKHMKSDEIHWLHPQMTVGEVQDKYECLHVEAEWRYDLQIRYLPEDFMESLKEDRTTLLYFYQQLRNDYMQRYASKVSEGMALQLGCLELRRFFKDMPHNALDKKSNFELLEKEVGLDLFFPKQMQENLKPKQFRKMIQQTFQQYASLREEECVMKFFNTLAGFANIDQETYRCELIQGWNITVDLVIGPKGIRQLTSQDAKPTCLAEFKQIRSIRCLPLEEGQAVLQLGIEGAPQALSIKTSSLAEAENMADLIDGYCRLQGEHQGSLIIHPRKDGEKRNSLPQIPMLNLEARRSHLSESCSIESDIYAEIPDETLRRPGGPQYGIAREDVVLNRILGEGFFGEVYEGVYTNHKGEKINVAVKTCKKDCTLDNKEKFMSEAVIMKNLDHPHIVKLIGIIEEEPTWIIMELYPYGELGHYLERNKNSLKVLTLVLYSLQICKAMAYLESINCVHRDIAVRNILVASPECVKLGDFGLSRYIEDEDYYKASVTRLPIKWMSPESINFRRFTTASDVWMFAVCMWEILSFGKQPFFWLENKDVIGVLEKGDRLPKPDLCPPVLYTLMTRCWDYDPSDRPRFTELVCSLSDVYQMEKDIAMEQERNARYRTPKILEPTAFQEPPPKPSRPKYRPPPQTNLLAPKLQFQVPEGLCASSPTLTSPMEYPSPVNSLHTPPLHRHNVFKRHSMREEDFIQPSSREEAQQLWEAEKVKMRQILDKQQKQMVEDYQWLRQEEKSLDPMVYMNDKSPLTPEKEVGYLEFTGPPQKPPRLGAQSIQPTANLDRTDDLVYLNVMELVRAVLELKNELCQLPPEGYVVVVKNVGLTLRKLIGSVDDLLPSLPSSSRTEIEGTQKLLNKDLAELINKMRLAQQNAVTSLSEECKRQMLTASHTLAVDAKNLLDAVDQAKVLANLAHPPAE
Chain of ELAV-like protein 1 (Q15717 whole entry): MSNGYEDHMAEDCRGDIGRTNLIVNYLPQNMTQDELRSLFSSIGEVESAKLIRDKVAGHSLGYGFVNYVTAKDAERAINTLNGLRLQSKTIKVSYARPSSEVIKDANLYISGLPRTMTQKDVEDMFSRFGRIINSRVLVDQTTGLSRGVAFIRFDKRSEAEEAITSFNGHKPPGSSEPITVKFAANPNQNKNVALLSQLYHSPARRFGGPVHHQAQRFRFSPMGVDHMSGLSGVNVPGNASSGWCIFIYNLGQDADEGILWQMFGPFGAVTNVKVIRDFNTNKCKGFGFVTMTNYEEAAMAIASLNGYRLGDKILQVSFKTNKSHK
Chain of Tumor necrosis factor (P01375 whole entry): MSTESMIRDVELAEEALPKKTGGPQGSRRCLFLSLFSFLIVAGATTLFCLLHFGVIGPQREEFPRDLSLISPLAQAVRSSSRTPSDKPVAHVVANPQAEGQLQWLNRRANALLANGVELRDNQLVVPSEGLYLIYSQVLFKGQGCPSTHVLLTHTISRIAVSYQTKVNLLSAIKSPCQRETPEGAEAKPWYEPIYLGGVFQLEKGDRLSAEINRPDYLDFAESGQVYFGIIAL
Chain of Genome polyprotein (Q2Q167 whole entry): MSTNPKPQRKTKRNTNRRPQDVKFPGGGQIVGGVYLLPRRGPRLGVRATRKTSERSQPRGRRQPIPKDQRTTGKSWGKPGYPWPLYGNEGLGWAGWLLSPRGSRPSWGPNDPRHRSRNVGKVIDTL

## Cc1cc(C(=O)OCC(=O)c2ccc(Cl)c([N+](=O)[O-])c2)c2cccc(C)c2n1
Genome polyprotein
  IC50: > 49.8 µM (not active)

## CCOc1ccc(NC(=O)CN(C)S(=O)(=O)c2c[nH]cn2)cc1
[1]
  EC50: 25 µM (not active)

## CC1=CC(C)(C)Nc2ccc(OC(=O)c3cccnc3)cc21
[2]
  EC50: 5.85 µM (active)
[3]
  IC50: 62.5 µM (inactive)
[4]
  CC50: 34.4 µM (active)
[5]
  IC50: 3.22 µM (active)
[6]
  EC50: 7.33 µM (active)
[7]
  EC50: 8.6 µM (active)
[8]
  EC50: 8.23 µM (active)

## Cc1csc(C(C#N)C(=O)c2cc3ccccc3o2)n1 (stereo unspecified)
[9]
  EC50: 0.926 µM (active)
[10]
  EC50: 1.46 µM (active)
[11]
  EC50: < 0.1 µM (active)
[12]
  EC50: 0.387 µM (active)
[13]
  EC50: 9.73 µM (active)
H4
  EC50: 3.63 µM (active)

## CCOC(=O)c1csc(NC(=O)c2ccc(OCC)cc2)n1
[14]
  IC50: 0.88 µM (active)

## O=C(Nc1cccc([N+](=O)[O-])c1)c1ccc2ccccc2c1O
Tumor necrosis factor
  IC50: 4.72 µM (active)
HEK293 [15]
  IC50: 6.08 µM (inactive)
[16]
  IC50: 4.36 µM (active)
HEK293 [17]
  IC50: 6.83 µM (active)
ELAV-like protein 1
  IC50: 97.4 µM (inactive)
HEK293 [18]
  IC50: > 20 µM (inactive)
HEK293 [19]
  IC50: 13.2 µM (active)
HEK293 [20]
  EC50: 3.05 µM (active)

## Cc1oc(-c2ccccc2)cc1C(=O)Nc1cccc2ccccc12
[21]
  IC50: > 69.5 µM (not active)
[22]
  EC50: 18 µM (active)
